# From US8268862B2, “Sirtuin modulating compounds” (Sirtris Pharmaceuticals, Inc., priority 2007, dated 2012)
# Molecular target: T1, SIRT1 (Homo sapiens, UniProt Q96EB6)
# T1 sequence (Q96EB6 1-747): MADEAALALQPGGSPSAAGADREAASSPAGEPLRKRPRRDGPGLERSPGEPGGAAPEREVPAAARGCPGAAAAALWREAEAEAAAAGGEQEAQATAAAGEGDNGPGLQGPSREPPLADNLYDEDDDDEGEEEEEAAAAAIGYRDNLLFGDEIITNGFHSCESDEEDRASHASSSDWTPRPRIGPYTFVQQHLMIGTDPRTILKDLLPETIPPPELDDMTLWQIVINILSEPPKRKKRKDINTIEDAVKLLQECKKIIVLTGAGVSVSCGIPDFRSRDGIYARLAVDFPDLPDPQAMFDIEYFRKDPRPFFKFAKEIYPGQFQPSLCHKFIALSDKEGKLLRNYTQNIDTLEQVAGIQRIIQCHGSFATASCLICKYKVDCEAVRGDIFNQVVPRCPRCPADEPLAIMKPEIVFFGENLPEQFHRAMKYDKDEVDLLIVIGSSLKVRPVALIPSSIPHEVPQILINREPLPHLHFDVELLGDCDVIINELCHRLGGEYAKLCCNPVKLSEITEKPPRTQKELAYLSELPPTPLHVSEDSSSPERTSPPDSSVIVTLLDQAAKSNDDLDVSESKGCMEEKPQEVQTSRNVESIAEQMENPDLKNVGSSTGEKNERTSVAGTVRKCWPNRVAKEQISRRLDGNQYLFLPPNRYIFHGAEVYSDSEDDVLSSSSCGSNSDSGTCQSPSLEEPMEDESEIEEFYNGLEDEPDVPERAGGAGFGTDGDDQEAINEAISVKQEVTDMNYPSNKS
# Assay: mass spectrometry based SIRT1 deacetylation assay (activation)
# Format: biochemical
# Conditions: 0.5 μM peptide substrate, 120 μM βNAD+, 10 nM SIRT1, 25 min at 25° C.; for EC1.5 (concentration of test compound that results in 150% activation of SIRT1): NA = not active in the assay; for Emax: read-out: % FOLD ACT. (percent maximum fold activation of SIRT1)
# Description: A mass spectrometry based assay was used to identify modulators of SIRT1 activity. The mass spectrometry based assay utilizes a peptide having 20 amino acid residues as follows: Ac-EE-K(biotin)-GQSTSSHSK(Ac)NleSTEG-K(5TMR)-EE-NH2 (SEQ ID NO: 1) wherein K(Ac) is an acetylated lysine residue and Nle is a norleucine. The peptide is labeled with the fluorophore 5TMR (excitation 540 nm/emission 580 nm) at the C-terminus. The sequence of the peptide substrate is based on p53 with several modifications. In addition, the methionine residue naturally present in the sequence was replaced with the norleucine because the methionine may be susceptible to oxidation during synthesis and purification.
# Test compounds may be added to the reaction as described above. […] After the 25 minute incubation with SIRT1, 10 μL of 10% formic acid is added to stop the reaction. Reactions are sealed and frozen for later mass spec analysis. Determination of the mass of the substrate peptide allows for precise determination of the degree of acetylation (i.e. starting material) as compared to deacetylated peptide (product).
# A control for inhibition of sirtuin activity is conducted by adding 1 μL of 500 mM nicotinamide as a negative control at the start of the reaction (e.g., permits determination of maximum sirtuin inhibition). A control for activation of sirtuin activity is conducted using 10 nM of sirtuin protein, with 1 μL of DMSO in place of compound, to determine the amount of deacetylation of the substrate at a given timepoint within the linear range of the assay. This timepoint is the same as that used for test compounds and, within the linear range, the endpoint represents a change in velocity.
# For the above assay, SIRT1 protein was expressed and purified as follows. […] The protein was expressed by induction with 1 mM IPTG as an N-terminal His-tag fusion protein at 18° C. overnight and harvested at 30,000×g. Cells were lysed with lysozyme in lysis buffer (50 mM Tris-HCl, 2 mM Tris[2-carboxyethyl]phosphine (TCEP), 10 μM ZnCl2, 200 mM NaCl) and further treated with sonication for 10 min for complete lysis. The protein was purified over a Ni-NTA column (Amersham) and fractions containing pure protein were pooled, concentrated and run over a sizing column (Sephadex S200 26/60 global). The peak containing soluble protein was collected and run on an Ion-exchange column (MonoQ). Gradient elution (200 mM-500 mM NaCl) yielded pure protein. This protein was concentrated and dialyzed against dialysis buffer (20 mM Tris-HCl, 2 mM TCEP) overnight. The protein was aliquoted and frozen at −80° C. until further use.
# Sirtuin modulating compounds that activated SIRT1 were identified using the assay described above and are shown below in Table 3. The EC1.5 values represent the concentration of test compounds that result in 150% activation of SIRT1. NT means that the compound was not tested using the indicated assay. NA means that the compound was not active in the indicated assay.
SMILES,EC1.5 (concentration of test compound that results in 150% activation of SIRT1),Emax
O=C(Nc1ccccc1-c1nc2cc(CN3CC[C@H](F)C3)cnc2s1)c1ccc2ccccc2n1 [Compound 100],1440 NM,201%
Cc1nc(-c2cccnc2)sc1C(=O)Nc1ccccc1-c1nc2cc(CN[C@H]3CCNC3)cnc2s1 [Compound 82],878 NM,224%
O=C(Nc1ccccc1-c1nc2cc(CN3CCOCC3)cnc2s1)c1cncc(-c2ccccc2F)c1 [Compound 50],533 NM,207%
C[C@@H]1CN(Cc2cnc3sc(-c4ccccc4NC(=O)c4cccc(-c5ccccn5)c4)nc3c2)C[C@H](C)N1 [Compound 15],627 NM,531%
O=C(Nc1ccccc1-c1nc2cc(CN3CCOCC3)cnc2s1)c1nc2ccccc2s1 [Compound 93],510 NM,236%
O=C(Nc1ccccc1-c1nc2cc(CN3CCNCC3)cnc2s1)c1nc2ccccc2s1 [Compound 91],4410 NM,333%
O=C(Nc1ccccc1-c1nc2cc(CN3CCC(O)CC3)cnc2s1)c1ccc2ccccc2n1 [Compound 99],110 NM,244%
O=C(Nc1ccccc1-c1nc2cc(CN3CCOCC3)cnc2s1)c1cccc(-c2cccc(F)c2)c1 [Compound 49],319 NM,192%
COCCN1CCN(Cc2cnc3sc(-c4ccccc4NC(=O)c4cccc(-c5cccc(C(F)(F)F)c5)n4)nc3c2)CC1 [Compound 140],41 NM,500%
O=C(Nc1ccccc1-c1nc2cc(CN3CCOCC3)cnc2s1)c1cccc(-c2cccc(F)c2)n1 [Compound 53],66 NM,837%
O=C(Nc1ccccc1-c1nc2ccc(CN3CCNCC3)nc2s1)c1cnc2ccccc2n1 [Compound 66],,336%
COCCN1CCN(Cc2cnc3sc(-c4ccccc4NC(=O)c4cccc(-c5cc(F)ccc5F)n4)nc3c2)CC1 [Compound 145],86 NM,500%
COCCN1CCN(Cc2cnc3sc(-c4ccccc4NC(=O)c4sc(-c5cccnc5)nc4C)nc3c2)CC1 [Compound 85],16700 NM,182%
O=C(Nc1ccccc1-c1nc2cc(CN3CCOCC3)cnc2s1)c1cc(-c2ccccc2)n[nH]1 [Compound 3],1620 NM,246%
O=C(Nc1ccccc1-c1nc2cc(CN3C[C@@H]4C[C@H]3CN4)cnc2s1)c1cccc(-c2cccnc2)c1 [Compound 29],462 NM,378%
COCCN1CCN(Cc2cnc3sc(-c4ccccc4NC(=O)c4cccc(-c5ccccc5)n4)nc3c2)CC1 [Compound 47],82 NM,
O=C(Nc1ccccc1-c1nc2cc(CN3CCOCC3)cnc2s1)c1cn2cccnc2n1 [Compound 112],2330 NM,375%
Cn1cc(-c2ccccc2)cc1C(=O)Nc1ccccc1-c1nc2cc(CN3CCOCC3)cnc2s1 [Compound 150],67 NM,267%
Cc1cc(C(=O)Nc2ccccc2-c2nc3cc(CN4CCCC4)cnc3s2)nc(-c2ccccc2)n1 [Compound 135],759 NM,274%
O=C(Nc1ccccc1-c1nc2cc(CN3CCC(F)(F)C3)cnc2s1)c1ccc2ccccc2n1 [Compound 101],,133%
N[C@@H]1CCN(Cc2cnc3sc(-c4ccccc4NC(=O)c4ccc5ccccc5n4)nc3c2)C1 [Compound 109],270 NM,> 500%
CC(C)NCc1cnc2sc(-c3ccccc3NC(=O)c3cccc(-c4ccncc4)c3)nc2c1 [Compound 22],2620 NM,417%
O=C(Nc1ccccc1-c1nc2cc(CN3CCOCC3)cnc2s1)c1ccc2cccnc2n1 [Compound 107],500 NM,219%
COCCN1CCN(Cc2cnc3sc(-c4ccccc4NC(=O)c4cccc(-c5ccc(Cl)cc5)n4)nc3c2)CC1 [Compound 137],214 NM,448%

# Next, values leading:
EC1.5 (concentration of test compound that results in 150% activation of SIRT1),Emax,SMILES
750 NM,291%,O=C(Nc1ccccc1-c1nc2cc(CN[C@@H]3CCC[C@H]3O)cnc2s1)c1ccc2ccccc2n1 [Compound 121]
557 NM,216%,O=C(Nc1ccccc1-c1nc2cc(CN3CCCC3=O)cnc2s1)c1cccc(-c2ccccc2)c1 [Compound 149]
548 NM,292%,O=C(Nc1ccccc1-c1nc2cc(CN3CCOCC3)cnc2s1)c1cccc(-c2ncccn2)c1 [Compound 38]
69 NM,500%,COCCN1CCN(Cc2cnc3sc(-c4ccccc4NC(=O)c4cccc(-c5ccccc5F)n4)nc3c2)CC1 [Compound 134]
591 NM,170%,Cn1cc(-c2ccccc2)cc1C(=O)Nc1ccccc1-c1nc2cc(CN3CCCC3)cnc2s1 [Compound 151]
428 NM,277%,O=C(Nc1ccccc1-c1nc2cc(CN3CCCC3)cnc2s1)c1ccn(-c2ccccc2)n1 [Compound 154]
1940 NM,400%,O=C(Nc1ccccc1-c1nc2cc(CN3CCNCC3)cnc2s1)c1cn2ccccc2n1 [Compound 123]
746 NM,274%,O=C(Nc1ccccc1-c1nc2cc(CN3CCOCC3)cnc2s1)c1cccc(-c2ccncc2)c1 [Compound 6]
937 NM,381%,CC(C)NCc1cnc2sc(-c3ccccc3NC(=O)c3cccc(-c4ccccn4)c3)nc2c1 [Compound 14]
,139%,O=C(Nc1ccccc1-c1nc2cc(CN3CCOCC3)cnc2s1)c1nc2ccccc2o1 [Compound 98]
,100%,O=C(Nc1ccccc1-c1nc2cc(CN3CC[C@@H](F)C3)cnc2s1)c1cn2cc(C(F)(F)F)ccc2n1 [Compound 129]
416 NM,392%,O=C(Nc1ccccc1-c1nc2cc(CN3CCNCC3)cnc2s1)c1cccc(-c2cccnc2)c1 [Compound 9]
340 NM,471%,O=C(Nc1ccccc1-c1nc2cc(CN3CCNCC3)cnc2s1)c1cccc(-c2ccccn2)c1 [Compound 8]
